Reference: patent US12686673B2 (Blueprint Medicines Corporation, priority 2020, dated 2026)
Counter-ions that a name gives are not always drawn. Like-named read-outs stand apart in the source and are kept apart here.

Key:
Format in all cases: cell-based
[1] = biological target: EGFR(D770_N771insSVD) expressing Ba/F3 stable cell line (Homo sapiens, UniProt P00533, DUP768-770, cells depend on it); assay: Cellular proliferation (Alamar Blue) assay, EGFR D770_N771insSVD Ba/F3; conditions: 72 hr, read-out: D770 IC50
EGFR(D770_N771insSVD) expressing Ba/F3 stable cell line, sequence (P00533 with tags, fused parts or gaps DUP768-770): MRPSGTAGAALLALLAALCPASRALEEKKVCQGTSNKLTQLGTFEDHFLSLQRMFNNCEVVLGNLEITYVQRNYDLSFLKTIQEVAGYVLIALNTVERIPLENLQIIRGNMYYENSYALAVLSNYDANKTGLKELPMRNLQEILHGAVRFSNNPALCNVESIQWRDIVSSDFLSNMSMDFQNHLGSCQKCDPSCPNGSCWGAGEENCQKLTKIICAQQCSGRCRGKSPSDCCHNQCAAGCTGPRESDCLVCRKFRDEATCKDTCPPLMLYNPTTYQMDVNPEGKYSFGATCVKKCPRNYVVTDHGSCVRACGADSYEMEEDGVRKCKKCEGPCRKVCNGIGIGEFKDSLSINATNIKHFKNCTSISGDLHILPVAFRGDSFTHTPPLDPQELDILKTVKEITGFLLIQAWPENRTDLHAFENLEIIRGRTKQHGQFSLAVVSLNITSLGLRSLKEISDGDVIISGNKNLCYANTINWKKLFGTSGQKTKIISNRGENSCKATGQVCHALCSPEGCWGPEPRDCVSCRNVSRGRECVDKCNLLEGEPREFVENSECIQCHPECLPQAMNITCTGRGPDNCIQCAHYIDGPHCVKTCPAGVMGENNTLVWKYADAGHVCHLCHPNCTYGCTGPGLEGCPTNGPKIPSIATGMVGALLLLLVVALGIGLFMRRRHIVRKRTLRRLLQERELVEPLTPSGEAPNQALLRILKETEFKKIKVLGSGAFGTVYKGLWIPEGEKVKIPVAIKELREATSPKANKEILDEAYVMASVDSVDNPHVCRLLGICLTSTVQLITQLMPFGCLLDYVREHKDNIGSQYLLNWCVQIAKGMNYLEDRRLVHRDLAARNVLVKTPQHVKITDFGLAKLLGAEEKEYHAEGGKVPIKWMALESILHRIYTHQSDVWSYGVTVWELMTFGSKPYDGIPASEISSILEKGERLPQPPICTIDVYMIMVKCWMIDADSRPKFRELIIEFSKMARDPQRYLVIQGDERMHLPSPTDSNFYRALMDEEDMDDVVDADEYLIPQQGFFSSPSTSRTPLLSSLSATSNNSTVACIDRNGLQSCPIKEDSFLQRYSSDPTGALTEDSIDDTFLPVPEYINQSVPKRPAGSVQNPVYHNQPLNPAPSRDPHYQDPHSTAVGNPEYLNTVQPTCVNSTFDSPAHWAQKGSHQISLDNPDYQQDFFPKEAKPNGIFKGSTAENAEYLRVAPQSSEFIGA
Outline: (§1)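 Proliferation of mutant-dependent Ba/F3 lines is measured by Alamar Blue reduction over 3 hours, following a 72 hr incubation with test compound spanning 10-0.0005 μM final in threefold dilutions. Cells go in at 15,000 per well in RPMI containing 10% FBS the day before dosing.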

[2] = biological target: EGFR (A767_dupASV) expressing Ba/F3 stable cell line (Homo sapiens, UniProt P00533, DUP767-769, cells depend on it); assay: Cellular proliferation (Alamar Blue) assay, EGFR A767_dupASV Ba/F3; conditions: 72 hr, read-out: A767 IC50
EGFR (A767_dupASV) expressing Ba/F3 stable cell line, sequence (P00533 with tags, fused parts or gaps DUP767-769): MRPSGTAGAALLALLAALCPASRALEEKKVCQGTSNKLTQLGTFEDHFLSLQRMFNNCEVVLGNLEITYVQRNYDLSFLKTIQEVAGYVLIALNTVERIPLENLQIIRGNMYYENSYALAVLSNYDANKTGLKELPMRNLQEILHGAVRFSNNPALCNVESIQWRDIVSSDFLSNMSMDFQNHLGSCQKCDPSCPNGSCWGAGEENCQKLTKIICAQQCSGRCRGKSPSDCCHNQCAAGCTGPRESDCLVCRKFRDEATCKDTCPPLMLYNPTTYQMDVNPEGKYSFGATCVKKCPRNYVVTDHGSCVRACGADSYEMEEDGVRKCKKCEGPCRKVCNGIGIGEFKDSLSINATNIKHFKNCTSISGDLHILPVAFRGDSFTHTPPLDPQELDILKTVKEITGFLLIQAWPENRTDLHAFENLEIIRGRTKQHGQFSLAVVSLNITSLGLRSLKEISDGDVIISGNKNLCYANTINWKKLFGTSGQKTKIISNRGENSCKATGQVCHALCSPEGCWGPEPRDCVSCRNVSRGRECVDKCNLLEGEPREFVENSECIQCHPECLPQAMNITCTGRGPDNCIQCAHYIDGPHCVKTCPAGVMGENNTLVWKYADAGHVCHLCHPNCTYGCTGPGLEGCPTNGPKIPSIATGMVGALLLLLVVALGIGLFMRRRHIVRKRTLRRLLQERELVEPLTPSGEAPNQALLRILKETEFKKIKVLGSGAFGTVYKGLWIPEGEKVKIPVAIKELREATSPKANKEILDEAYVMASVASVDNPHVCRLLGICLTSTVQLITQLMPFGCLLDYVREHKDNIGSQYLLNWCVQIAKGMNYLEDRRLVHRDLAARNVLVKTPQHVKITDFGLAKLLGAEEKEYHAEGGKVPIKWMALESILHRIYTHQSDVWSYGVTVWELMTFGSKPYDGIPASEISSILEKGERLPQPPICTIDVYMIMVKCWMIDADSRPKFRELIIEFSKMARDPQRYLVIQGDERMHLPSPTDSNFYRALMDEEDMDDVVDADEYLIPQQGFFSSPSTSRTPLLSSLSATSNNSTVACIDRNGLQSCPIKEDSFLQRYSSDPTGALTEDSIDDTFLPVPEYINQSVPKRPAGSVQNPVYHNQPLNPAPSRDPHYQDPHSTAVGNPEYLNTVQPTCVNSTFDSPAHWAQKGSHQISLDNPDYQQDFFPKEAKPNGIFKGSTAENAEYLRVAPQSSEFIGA
Outline: as §1

[3] = system: A431 cells; assay: Cellular proliferation (Alamar Blue) assay, A431
[4] = biological target: EGFR (H773insNPH) expressing Ba/F3 stable cell line (Homo sapiens, UniProt P00533, DUP771-773, cells depend on it); assay: Cellular proliferation (Alamar Blue) assay, EGFR H773insNPH Ba/F3; conditions: 72 hr, read-out: NPH IC50
EGFR (H773insNPH) expressing Ba/F3 stable cell line, sequence (P00533 with tags, fused parts or gaps DUP771-773): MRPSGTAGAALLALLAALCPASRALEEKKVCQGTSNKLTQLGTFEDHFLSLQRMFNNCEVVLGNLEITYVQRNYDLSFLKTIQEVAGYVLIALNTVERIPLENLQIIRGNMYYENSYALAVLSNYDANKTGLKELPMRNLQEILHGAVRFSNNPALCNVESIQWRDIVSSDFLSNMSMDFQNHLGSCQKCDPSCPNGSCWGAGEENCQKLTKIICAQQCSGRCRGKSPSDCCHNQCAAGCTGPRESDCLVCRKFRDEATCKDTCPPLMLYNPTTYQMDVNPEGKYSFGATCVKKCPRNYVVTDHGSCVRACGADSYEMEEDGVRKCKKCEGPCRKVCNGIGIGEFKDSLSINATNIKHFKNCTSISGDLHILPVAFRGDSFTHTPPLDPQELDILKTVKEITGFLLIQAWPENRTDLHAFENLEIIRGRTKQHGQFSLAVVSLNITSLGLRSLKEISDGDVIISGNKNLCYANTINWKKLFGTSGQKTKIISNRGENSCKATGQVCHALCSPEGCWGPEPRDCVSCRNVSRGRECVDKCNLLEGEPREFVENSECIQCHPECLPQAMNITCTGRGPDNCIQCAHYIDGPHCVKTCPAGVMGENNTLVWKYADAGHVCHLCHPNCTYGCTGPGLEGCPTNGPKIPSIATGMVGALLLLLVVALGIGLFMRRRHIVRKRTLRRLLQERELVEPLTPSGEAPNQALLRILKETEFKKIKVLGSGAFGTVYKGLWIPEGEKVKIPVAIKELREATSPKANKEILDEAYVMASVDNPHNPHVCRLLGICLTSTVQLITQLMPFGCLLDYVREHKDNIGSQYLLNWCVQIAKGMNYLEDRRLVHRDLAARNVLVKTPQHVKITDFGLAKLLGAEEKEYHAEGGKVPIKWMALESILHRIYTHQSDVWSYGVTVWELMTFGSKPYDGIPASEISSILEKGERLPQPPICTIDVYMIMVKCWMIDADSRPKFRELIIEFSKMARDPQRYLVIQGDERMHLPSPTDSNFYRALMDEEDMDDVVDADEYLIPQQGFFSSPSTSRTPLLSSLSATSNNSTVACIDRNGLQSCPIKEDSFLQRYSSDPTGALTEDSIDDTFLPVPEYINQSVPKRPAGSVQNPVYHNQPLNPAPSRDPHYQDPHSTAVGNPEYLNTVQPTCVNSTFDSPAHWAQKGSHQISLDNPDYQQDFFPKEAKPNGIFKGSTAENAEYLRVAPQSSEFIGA
Method: • 1. EGFR(D770_N771insSVD) expressing Ba/F3 stable cell line • 2. EGFR (A767_dupASV) expressing Ba/F3 stable cell line • 3. A431 cells • 4. EGFR (H773insNPH) expressing Ba/F3 stable cell line • 5. HER2 (A775_G776insYVMA) expressing Ba/F3 stable cell line Assay Procedure: • 1. Seed cells at 5000 for A431 and 15,000 cells for Ba/F3 in 100 μL/well in complete media (for A431: DMEM with […] and for Ba/F3 cells: RPMI with 10% FBS) in 96-well tissue culture plate. Leave outer wells without cells for background measurements. Incubate at 37 degree Celsius in […] humidified incubator for 16-18 hours. • 2. Add 0.025 ml of 5× concentration compound dilution or DMSO control. Final compound concentration range is 10-0.0005 μM prepared in 3-fold serial dilutions. Incubate for 72 hr at 37 degree Celsius in […] humidified incubator. • 3. Add 0.0125 ml Alamar Blue™ reagent to each well with multi-channel pipette and tap gently on each side of the plate to mix. Incubate for 3 hours at 37 degree Celsius in 5% CO2 humidified incubator. • 4. […] Data analysis was performed using XLfit 5.5.0.5.

[5] = biological target: HER2 (A775_G776insYVMA) expressing Ba/F3 stable cell line (Homo sapiens, UniProt P04626, DUP772-775, cells depend on it); assay: Cellular proliferation (Alamar Blue) assay, HER2 A775_G776insYVMA Ba/F3; conditions: 72 hr, read-out: YVMA IC50
HER2 (A775_G776insYVMA) expressing Ba/F3 stable cell line, sequence (P04626 with tags, fused parts or gaps DUP772-775): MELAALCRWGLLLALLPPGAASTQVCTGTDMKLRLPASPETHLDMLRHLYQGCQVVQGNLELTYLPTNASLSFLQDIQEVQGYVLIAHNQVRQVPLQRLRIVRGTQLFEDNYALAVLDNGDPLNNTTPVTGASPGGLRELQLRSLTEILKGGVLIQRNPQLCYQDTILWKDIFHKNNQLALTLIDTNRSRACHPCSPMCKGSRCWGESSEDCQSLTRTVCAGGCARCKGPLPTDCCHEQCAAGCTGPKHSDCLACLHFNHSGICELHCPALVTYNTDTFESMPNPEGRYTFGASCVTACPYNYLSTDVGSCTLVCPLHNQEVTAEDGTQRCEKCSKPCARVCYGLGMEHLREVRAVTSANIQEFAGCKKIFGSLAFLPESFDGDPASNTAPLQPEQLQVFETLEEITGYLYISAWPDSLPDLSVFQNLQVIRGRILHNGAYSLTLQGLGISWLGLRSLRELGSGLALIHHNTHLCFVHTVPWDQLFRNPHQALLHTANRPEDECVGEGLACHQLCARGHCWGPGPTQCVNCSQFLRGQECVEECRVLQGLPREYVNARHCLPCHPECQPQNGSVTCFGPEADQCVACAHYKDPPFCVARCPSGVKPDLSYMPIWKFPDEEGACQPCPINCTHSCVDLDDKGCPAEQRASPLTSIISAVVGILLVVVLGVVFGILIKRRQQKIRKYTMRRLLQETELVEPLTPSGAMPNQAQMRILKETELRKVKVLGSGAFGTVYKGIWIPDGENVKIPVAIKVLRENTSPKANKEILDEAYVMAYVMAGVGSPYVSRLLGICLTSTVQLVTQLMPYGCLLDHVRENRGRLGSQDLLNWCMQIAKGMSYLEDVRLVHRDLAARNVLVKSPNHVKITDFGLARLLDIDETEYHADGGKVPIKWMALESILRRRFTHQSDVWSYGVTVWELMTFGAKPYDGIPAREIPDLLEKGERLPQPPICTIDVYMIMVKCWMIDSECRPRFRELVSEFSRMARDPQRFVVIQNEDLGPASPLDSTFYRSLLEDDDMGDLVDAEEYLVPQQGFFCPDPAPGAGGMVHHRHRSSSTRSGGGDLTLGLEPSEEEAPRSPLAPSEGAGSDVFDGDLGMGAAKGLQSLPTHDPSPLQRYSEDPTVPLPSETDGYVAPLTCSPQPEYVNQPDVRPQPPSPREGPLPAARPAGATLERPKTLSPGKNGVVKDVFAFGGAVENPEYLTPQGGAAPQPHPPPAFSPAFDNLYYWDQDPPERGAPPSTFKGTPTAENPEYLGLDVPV
Outline: as §1

[6] = Homo sapiens, A-431; A431 cells, Alamar Blue, 72 hr; read-out: A431 IC50
[7] = Homo sapiens, A-431; A431 cells, 72 hr, Alamar Blue; read-out: A431 IC50

SMILES	GI50 [1] [nM]	GI50 [2] [nM]	IC50 [3, 6] [nM]	GI50 [4] [nM]	GI50 [5] [nM]	IC50 [3, 7] [nM]
C=CC(=O)Nc1ccc(F)c(Nc2nc(Nc3cnn(C4CCN(C)CC4)c3)ncc2Cl)c1 [Compound 14, N-(3-((5-chloro-2-((1-(1-methylpiperidin-4-yl)-1H-pyrazol-4-yl)amino)pyrimidin-4-yl)amino)-4-fluorophenyl)acrylamide]	320	170	1830	192	756	–
C=CC(=O)Nc1ccc(F)c(Nc2nc(Nc3cnn(C)c3)ncc2-c2ccc(C(F)(F)F)cc2)c1 [Compound 37, N-(4-fluoro-3-((2-((1-methyl-1H-pyrazol-4-yl)amino)-5-(4-(trifluoromethyl)phenyl)pyrimidin-4-yl)amino)phenyl)acrylamide]	34	73	185	85	974	–
C=CC(=O)Nc1ccc(F)c(Nc2nc(Nc3ccc(CN(C)C)cc3)ncc2-c2ccc(C(F)(F)F)cc2)c1 [Compound 45, N-(3-((2-((4-((dimethylamino)methyl)phenyl)amino)-5-(4-(trifluoromethyl)phenyl)pyrimidin-4-yl)amino)-4-fluorophenyl)acrylamide trifluoroacetate]	105	238	27	149	134	–
C=CC(=O)Nc1ccc(F)c(Nc2nc(Nc3cnn(C)c3)ncc2-c2cncc(C(F)(F)F)c2)c1 [Compound 56, N-(4-fluoro-3-((2-((1-methyl-1H-pyrazol-4-yl)amino)-5-(5-(trifluoromethyl)pyridin-3-yl)pyrimidin-4-yl)amino)phenyl)acrylamide]	–	–	34	41	92	–
C=CC(=O)Nc1ccc(F)c(Nc2nc(Nc3cnn(C)c3)ncc2-c2ccc(C(F)(F)F)nc2)c1 [Compound 57, N-(4-fluoro-3-((2-((1-methyl-1H-pyrazol-4-yl)amino)-5-(6-(trifluoromethyl)pyridin-3-yl)pyrimidin-4-yl)amino)phenyl)acrylamide]	44	71	1940	82	177	–
C=CC(=O)Nc1ccc(F)c(Nc2nc(Nc3cnn(C)c3)ncc2-c2ccc(Cl)cc2)c1 [Compound 61, N-(3-((5-(4-chlorophenyl)-2-((1-methyl-1H-pyrazol-4-yl)amino)pyrimidin-4-yl)amino)-4-fluorophenyl)acrylamide]	56	99	261	91	219	–
C=CC(=O)Nc1ccc(F)c(Nc2nc(Nc3cnn(C)c3)ncc2-c2ccc(F)cc2)c1 [Compound 63, N-(4-fluoro-3-((5-(4-fluorophenyl)-2-((1-methyl-1H-pyrazol-4-yl)amino)pyrimidin-4-yl)amino)phenyl)acrylamide]	60	102	1280	116	344	–
C=CC(=O)Nc1ccc(F)c(Nc2nc(Nc3cnn(C)c3)ncc2-c2ccc(C)nc2)c1 [Compound 66, N-(4-fluoro-3-((2-((1-methyl-1H-pyrazol-4-yl)amino)-5-(6-methylpyridin-3-yl)pyrimidin-4-yl)amino)phenyl)acrylamide]	–	35	138	73	50	–
C=CC(=O)Nc1ccc(F)c(Nc2nc(Nc3cnn(C)c3)ncc2-c2cncc(C)c2)c1 [Compound 67, N-(4-fluoro-3-((2-((1-methyl-1H-pyrazol-4-yl)amino)-5-(5-methylpyridin-3-yl)pyrimidin-4-yl)amino)phenyl)acrylamide]	30	36	120	41	26	–
C=CC(=O)Nc1ccc(F)c(Nc2nc(Nc3cnn(C)c3)ncc2-c2ccnc(OC)c2)c1 [Compound 68, N-(4-fluoro-3-((5-(2-methoxypyridin-4-yl)-2-((1-methyl-1H-pyrazol-4-yl)amino)pyrimidin-4-yl)amino)phenyl)acrylamide]	101	108	223	107	128	–
C=CC(=O)Nc1ccc(F)c(Nc2nc(Nc3cnn(C)c3)ncc2-c2cncc(F)c2)c1 [Compound 69, N-(4-fluoro-3-((5-(5-fluoropyridin-3-yl)-2-((1-methyl-1H-pyrazol-4-yl)amino)pyrimidin-4-yl)amino)phenyl)acrylamide]	11	14	65	21	19	–
C=CC(=O)Nc1ccc(F)c(Nc2nc(Nc3cnn(C)c3)ncc2-c2ccc(OC(F)F)nc2)c1 [Compound 70, N-(3-((5-(6-(difluoromethoxy)pyridin-3-yl)-2-((1-methyl-1H-pyrazol-4-yl)amino)pyrimidin-4-yl)amino)-4-fluorophenyl)acrylamide]	35	36	77	88	123	–
C=CC(=O)Nc1ccc(F)c(Nc2nc(Nc3cnn(C)c3)ncc2-c2ccnc(OC(F)F)c2)c1 [Compound 71, N-(3-((5-(2-(difluoromethoxy)pyridin-4-yl)-2-((1-methyl-1H-pyrazol-4-yl)amino)pyrimidin-4-yl)amino)-4-fluorophenyl)acrylamide]	107	107	150	103	226	–
C=CC(=O)Nc1ccc(F)c(Nc2nc(Nc3cnn(CCN(C)C)c3)ncc2-c2ccc(C(F)(F)F)cc2)c1 [Compound 72, N-(3-((2-((1-(2-(dimethylamino)ethyl)-1H-pyrazol-4-yl)amino)-5-(4-(trifluoromethyl)phenyl)pyrimidin-4-yl)amino)-4-fluorophenyl)acrylamide trifluoroacetate]	99	108	80	95	129	–

Further lines, results first:

GI50 [1] [nM]	GI50 [2] [nM]	IC50 [3, 6] [nM]	GI50 [4] [nM]	GI50 [5] [nM]	IC50 [3, 7] [nM]	SMILES
39	45	252	100	113	–	C=CC(=O)Nc1cccc(Nc2nc(Nc3cnn(C)c3)ncc2-c2ccc(C(F)(F)F)nc2)c1 [Compound 73, N-(3-((2-((1-methyl-1H-pyrazol-4-yl)amino)-5-(6-(trifluoromethyl)pyridin-3-yl)pyrimidin-4-yl)amino)phenyl)acrylamide]
36	38	236	43	70	–	C=CC(=O)Nc1cccc(Nc2nc(Nc3cnn(C)c3)ncc2-c2ccc(F)nc2)c1 [Compound 74, N-(3-((5-(6-fluoropyridin-3-yl)-2-((1-methyl-1H-pyrazol-4-yl)amino)pyrimidin-4-yl)amino)phenyl)acrylamide]
34	–	309	34	30	–	C=CC(=O)Nc1ccc(F)c(Nc2nc(Nc3cnn(C)c3)ncc2-c2cncc(C(F)F)c2)c1 [Compound 110, N-(3-((5-(5-(difluoromethyl)pyridin-3-yl)-2-((1-methyl-1H-pyrazol-4-yl)amino)pyrimidin-4-yl)amino)-4-fluorophenyl)acrylamide]
–	36	163	29	57	–	C=CC(=O)Nc1cccc(Nc2nc(Nc3cnn(C)c3)ncc2-c2ccc(OC)nc2)c1 [Compound 118, N-(3-((5-(6-methoxypyridin-3-yl)-2-((1-methyl-1H-pyrazol-4-yl)amino)pyrimidin-4-yl)amino)phenyl)acrylamide trifluoroacetate]
1420	5960	–	2810	–	1180	Cn1cc(Nc2ncc(-c3ccc(C(F)(F)F)cc3)c(Nc3cc(NC(=O)CCl)ccc3F)n2)cn1 [Compound 252, 2-chloro-N-[4-fluoro-3-({2-[(1-methyl-1H-pyrazol-4-yl)amino]-5-[4-(trifluoromethyl)phenyl]pyrimidin-4-yl}amino)phenyl]acetamide]
8450	8750	–	> 10000	–	3980	C=CS(=O)(=O)Nc1ccc(F)c(Nc2nc(Nc3cnn(C)c3)ncc2-c2ccc(C(F)(F)F)cc2)c1 [Compound 253, N-[4-fluoro-3-({2-[(1-methyl-1H-pyrazol-4-yl)amino]-5-[4-(trifluoromethyl)phenyl]pyrimidin-4-yl}amino)phenyl] ethene-1-sulfonamide]
